Laboratory results taken from patent US6355799B1, “Substituted benzene compounds, process for their preparation, and herbicidal and defoliant compositions containing them” (ISK Americas Incorporated, priority 1997, dated 2002).

Columns and labels:
Assay type in all cases: in vivo
[1] = tested on: upland rice (Oryza sp., var. Tebonnet, RICE); assay: Post-emerge test, crop safety; conditions: rating scale 0-100 (0 no damage, 100 complete death), 14 days after application
In short: (§1)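 Applied at 15–1000 g ai/ha from acetone in 187 l/ha spray volume. Post-emergence applications included 0.25% v/v non-ionic surfactant and reached plants sown 8–21 days before. Pre-emergence applications were incorporated by surface watering. Efficacy or crop damage was rated on a 0–100 scale after 14 days.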

[2] = tested on: field corn (Zea mays L., var. Dekalb 535, CORN); assay: Post-emerge test, crop safety; conditions: rating scale 0-100 (0 no damage, 100 complete death), 14 days after application
In short: as §1

[3] = tested on: redroot pigweed (Amaranthus retroflexus, AMARE); assay: Pre-emerge test, greenhouse herbicide activity screening; conditions: rating scale 0-100, 14 days after application
In short: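 Rating: 0–100 visual injury, 14 DAA. Application: acetone, 187 l/ha, 15–1000 g ai/ha, flat-fan track sprayer with nozzle 40–45 cm above soil or canopy. Post-emerge runs used 0.25% v/v surfactant on 2–3 leaf plants.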

[4] = tested on: large crabgrass (Digitaria sanguinalis, DIGSA); assay: Post-emerge test, greenhouse herbicide activity screening; conditions: rating scale 0-100 (0 no damage, 100 complete death), 14 days after application
In short: (§2)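 Compounds in acetone were track-sprayed at 187 l/ha, 15–1000 g ai/ha, onto sandy loam pots. Pre-emerge seeds were sown one day before spraying, with surface watering afterwards. Post-emerge plants were at the 2–3 leaf stage and sprayed with 0.25% v/v non-ionic surfactant. Injury was rated 0–100 at 14 days.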

[5] = tested on: barnyardgrass (Echinochloa crus-galli, ECHCG); assay: as above; conditions: rating scale 0-100 (0 no damage, 100 complete death), 14 days after application
In short: as §2

[6] = tested on: green foxtail (Setaria viridis, SETVI); assay: as above; conditions: rating scale 0-100 (0 no damage, 100 complete death), 14 days after application
In short: as §2

[7] = tested on: redroot pigweed (Amaranthus retroflexus, AMARE); assay: as above; conditions: rating scale 0-100 (0 no damage, 100 complete death), 14 days after application
In short: as §2

[8] = tested on: sicklepod (Cassia obtusifolia, CASOB); assay: as above; conditions: rating scale 0-100 (0 no damage, 100 complete death), 14 days after application
In short: as §2

[9] = tested on: johnsongrass (Sorghum halepense, SORHA); assay: as above; conditions: rating scale 0-100 (0 no damage, 100 complete death), 14 days after application
In short: as §2

[10] = tested on: velvetleaf (Abutilon theophrasti, ABUTH); assay: as above; conditions: rating scale 0-100 (0 no damage, 100 complete death), 14 days after application
In short: as §2

[11] = tested on: lambsquarters (Chenopodium album, CHEAL); assay: as above; conditions: rating scale 0-100 (0 no damage, 100 complete death), 14 days after application
In short: as §2

[12] = tested on: ivyleaf morningglory (Ipomoea hederacea, IPOHE); assay: as above; conditions: rating scale 0-100 (0 no damage, 100 complete death), 14 days after application
In short: as §2

[13] = tested on: large crabgrass (Digitaria sanguinalis, DIGSA); assay: Pre-emerge test, greenhouse herbicide activity screening; conditions: rating scale 0-100, 14 days after application
In short: as §1

[14] = tested on: common ragweed (Ambrosia artemisizfolia L., AMBEL); assay: as above; conditions: rating scale 0-100, 14 days after application
In short: as §1

[15] = tested on: barnyardgrass (Echinochloa crus-galli, ECHCG); assay: as above; conditions: rating scale 0-100, 14 days after application
In short: as §1

[16] = tested on: green foxtail (Setaria viridis, SETVI); assay: as above; conditions: rating scale 0-100, 14 days after application
In short: as §1

[17] = tested on: sicklepod (Cassia obtusifolia, CASOB); assay: as above; conditions: rating scale 0-100, 14 days after application
In short: as §1

[18] = tested on: johnsongrass (Sorghum halepense, SORHA); assay: as above; conditions: rating scale 0-100, 14 days after application
In short: as §1

[19] = tested on: velvetleaf (Abutilon theophrasti, ABUTH); assay: as above; conditions: rating scale 0-100, 14 days after application
In short: as §1

[20] = tested on: lambsquarters (Chenopodium album, CHEAL); assay: as above; conditions: rating scale 0-100, 14 days after application
In short: as §1

[21] = tested on: ivyleaf morningglory (Ipomoea hederacea, IPOHE); assay: as above; conditions: rating scale 0-100, 14 days after application
In short: as §1

[22] = tested on: upland rice (Oryza sp., var. Tebonnet, RICE); assay: Pre-emerge test, crop safety; conditions: rating scale 0-100, 14 days after application
In short: as §1

[23] = tested on: field corn (Zea mays L., var. Dekalb 535, CORN); assay: Pre-emerge test, crop safety; conditions: rating scale 0-100, 14 days after application
In short: as §1

CCCCCOC(=O)C(Cl)Cc1c(OC)c(Cl)cc(F)c1-n1c(=O)cc(C(F)(F)F)n(C)c1=O (single isomer, unassigned) [14-11]
Post-emerge phytotoxicity rating RICE (crop damage) ([1]; Rate 63 g ai/ha): 10 | Post-emerge phytotoxicity rating RICE (crop damage) ([1]; Rate 250 g ai/ha): 20 | Post-emerge phytotoxicity rating CORN (crop damage) ([2]; Rate 63 g ai/ha): 100 | Post-emerge phytotoxicity rating CORN (crop damage) ([2]; Rate 250 g ai/ha): 100 | Pre-emerge herbicidal activity, phytotoxicity rating AMARE ([3]; 63 g ai/ha): 100 | Pre-emerge herbicidal activity, phytotoxicity rating AMARE ([3]; 250 g ai/ha): 100 | Post-emerge Herbicidal Activity, phytotoxicity rating DIGSA ([4]; Rate 63 g ai/ha): 99 | Post-emerge Herbicidal Activity, phytotoxicity rating DIGSA ([4]; Rate 250 g ai/ha): 100 | Post-emerge Herbicidal Activity, phytotoxicity rating ECHCG ([5]; Rate 63 g ai/ha): 100 | Post-emerge Herbicidal Activity, phytotoxicity rating ECHCG ([5]; Rate 250 g ai/ha): 100 | Post-emerge Herbicidal Activity, phytotoxicity rating SETVI ([6]; Rate 63 g ai/ha): 80 | Post-emerge Herbicidal Activity, phytotoxicity rating SETVI ([6]; Rate 250 g ai/ha): 100 | Post-emerge Herbicidal Activity, phytotoxicity rating AMARE ([7]; Rate 63 g ai/ha): 95 | Post-emerge Herbicidal Activity, phytotoxicity rating AMARE ([7]; Rate 250 g ai/ha): 100 | Post-emerge Herbicidal Activity, phytotoxicity rating CASOB ([8]; Rate 63 g ai/ha): 50 | Post-emerge Herbicidal Activity, phytotoxicity rating CASOB ([8]; Rate 250 g ai/ha): 70 | Post-emerge Herbicidal Activity, phytotoxicity rating SORHA ([9]; Rate 63 g ai/ha): 50 | Post-emerge Herbicidal Activity, phytotoxicity rating SORHA ([9]; Rate 250 g ai/ha): 99 | Post-emerge Herbicidal Activity, phytotoxicity rating ABUTH ([10]; Rate 63 g ai/ha): 80 | Post-emerge Herbicidal Activity, phytotoxicity rating ABUTH ([10]; Rate 250 g ai/ha): 100 | Post-emerge Herbicidal Activity, phytotoxicity rating CHEAL ([11]; Rate 63 g ai/ha): 50 | Post-emerge Herbicidal Activity, phytotoxicity rating CHEAL ([11]; Rate 250 g ai/ha): 100 | Post-emerge Herbicidal Activity, phytotoxicity rating IPOHE ([12]; Rate 63 g ai/ha): 90 | Post-emerge Herbicidal Activity, phytotoxicity rating IPOHE ([12]; Rate 250 g ai/ha): 100 | Pre-emerge herbicidal activity, phytotoxicity rating DIGSA ([13]; 63 g ai/ha): 50 | Pre-emerge herbicidal activity, phytotoxicity rating DIGSA ([13]; 250 g ai/ha): 100 | Pre-emerge herbicidal activity, phytotoxicity rating AMBEL ([14]; 63 g ai/ha): 0 | Pre-emerge herbicidal activity, phytotoxicity rating AMBEL ([14]; 250 g ai/ha): 100 | Pre-emerge herbicidal activity, phytotoxicity rating ECHCG ([15]; 63 g ai/ha): 0 | Pre-emerge herbicidal activity, phytotoxicity rating ECHCG ([15]; 250 g ai/ha): 0 | Pre-emerge herbicidal activity, phytotoxicity rating SETVI ([16]; 63 g ai/ha): 0 | Pre-emerge herbicidal activity, phytotoxicity rating SETVI ([16]; 250 g ai/ha): 50 | Pre-emerge herbicidal activity, phytotoxicity rating CASOB ([17]; 63 g ai/ha): 0 | Pre-emerge herbicidal activity, phytotoxicity rating CASOB ([17]; 250 g ai/ha): 0 | Pre-emerge herbicidal activity, phytotoxicity rating SORHA ([18]; 63 g ai/ha): 0 | Pre-emerge herbicidal activity, phytotoxicity rating SORHA ([18]; 250 g ai/ha): 0 | Pre-emerge herbicidal activity, phytotoxicity rating ABUTH ([19]; 63 g ai/ha): 50 | Pre-emerge herbicidal activity, phytotoxicity rating ABUTH ([19]; 250 g ai/ha): 100 | Pre-emerge herbicidal activity, phytotoxicity rating CHEAL ([20]; 63 g ai/ha): 70 | Pre-emerge herbicidal activity, phytotoxicity rating CHEAL ([20]; 250 g ai/ha): 100 | Pre-emerge herbicidal activity, phytotoxicity rating IPOHE ([21]; 63 g ai/ha): 30 | Pre-emerge herbicidal activity, phytotoxicity rating IPOHE ([21]; 250 g ai/ha): 50 | Pre-emerge phytotoxicity rating, crop damage RICE ([22]; 63 g ai/ha): 0 | Pre-emerge phytotoxicity rating, crop damage RICE ([22]; 250 g ai/ha): 0 | Pre-emerge phytotoxicity rating, crop damage CORN ([23]; 63 g ai/ha): 0 | Pre-emerge phytotoxicity rating, crop damage CORN ([23]; 250 g ai/ha): 0
